This is an account of results in patent US7915223B2, “Antimicrobial agents” (priority 2004, dated 2011).

Like-named read-outs stand apart in the source and are kept apart here. Bridge positions count the residues as written; N and C are the ends. Ends that are not written are not given here. Peptide text beside a SMILES is read from it.

The subject of data set [1] is microorganisms in the saliva of healthy human volunteers. The following applies: fresh human saliva 1:1 with 100 μM agent, pH 5.
Protocol: A solution of the saliva with no anti-bacterial agent served as a control. […] Each of the solutions was spread over a LA plate, and the plated saliva samples were incubated overnight at 37° C. without aeration. The colonies were enumerated and counted to determine the microbicidal effect of the drug. The values of viable colony forming units (CFU) were determined as described above.
Data set [2] in a line: Hemolysis assay. It is filed as cell-based, human. The following applies: lytic concentration inducing 50% lysis of human red blood cells in PBS, read-out: LC50 (the source's name). As for the experimental part: (§1) The polymer's membranolytic potential was determined against human red blood cells (RBC) in phosphate buffer solution (PBS).
(§2) Alternatively, a 10% hematocrit was used and hemolysis was determined after one hour incubation.

A short description of data set [3]: Hydrophobicity estimation by reversed-phase HPLC (percent acetonitrile at elution). The following applies: percent of acetonitrile at which the polymer was eluted on reversed-phase C18 HPLC. It is filed as physicochemical. As for the experimental part:
HPLC chromatograms were performed on C18 columns (Vydak, 250 mm×4.6 or 10 mm) using a linear gradient of acetonitrile in water (1% per minute), both solvents contained 0.1% trifluoroacetic acid. The purified polymers were subjected to mass spectrometry (ZQ Waters) to confirm their composition and stored as a lyophilized powder at −20° C. Prior to being tested, fresh solutions were prepared in water, mixed by vortex, solubilized by ultrasound, centrifuged and then diluted in the appropriate medium.
In order to estimate the hydrophobicity of each polymer, the polymer was eluted with a linear gradient of acetonitrile (1% per minute) on an HPLC reversed-phase C18 column, and the percent of acetonitrile at which the polymer was eluted was used for hydrophobicity estimation (see, “ACN (%)” in Table 3 below).

The test system of data set [4] is human red blood cells (RBC). The data set is described as follows: Hemolysis assay. Type of data set: cell-based. The settings on record: human RBC, 10% hematocrit, 1 hour at 37° C., 31 μM, 94 μM and 156 μM. As for the experimental part: as §1, §2

Turning to `CC(C)C[C@H](NC(=O)CNC(=O)CNC(=O)[C@@H](N)CCCNC(=N)N)C(=O)N[C@H]1CSSC[C@@H](C(=O)N[C@H](C(=O)NCC(=O)N[C@@H](CCCNC(=N)N)C(N)=O)C(C)C)NC(=O)[C@H](C(C)C)NC(=O)[C@@H]2CSSC[C@H](NC(=O)[C@H](Cc3ccc(O)cc3)NC1=O)C(=O)N[C@@H](CCCNC(=N)N)C(=O)NCC(=O)N[C@@H](CCCNC(=N)N)C(=O)N[C@@H](Cc1ccccc1)C(=O)N2` [IB-367] (H-RGGLCYCRGRFCVCVGR-NH2; disulfide 5-14, 7-12), the “growth of saliva microorganisms (CFU per ml versus incubation time)” value in data set [1] is given as “inhibited but proliferation is resumed after 30 minutes”. Further, the HC50 in data set [2] turned out to be 7 µM. For the same compound, the “ACN (%)” value in data set [3] is reported as 45%.
Turning to `CC[C@H](C)[C@H](NC(=O)[C@H](CCC(=O)O)NC(=O)[C@H](CCC(=O)O)NC(=O)[C@H](Cc1ccccc1)NC(=O)[C@H](CC(=O)O)NC(=O)CNC(=O)[C@H](CC(N)=O)NC(=O)CNC(=O)CNC(=O)CNC(=O)CNC(=O)[C@@H]1CCCN1C(=O)[C@H](CCCNC(=N)N)NC(=O)[C@@H]1CCCN1C(=O)[C@H](N)Cc1ccccc1)C(=O)N1CCC[C@H]1C(=O)N[C@@H](CCC(=O)O)C(=O)N[C@@H](CCC(=O)O)C(=O)N[C@@H](Cc1ccc(O)cc1)C(=O)N[C@@H](CC(C)C)C(=O)O` [bivalirudin], in data set [4], the hemolytic activity result is reported as “merely a “background level” activity”.
As to GIGKFLKKAKKFGKAFVKILKK-NH2 [MSI-78], the hemolytic activity entry in data set [4] was “high degree of hemolysis”. The HC50 in data set [2] (red blood cells (RBC)) stood at 45 µM.
